Assay results taken from PMC11480411, “Mucosal sugars delineate pyrazine vs pyrazinone autoinducer signaling in Klebsiella oxytoca” (Nature Communications, 2024).

Key:
Assay in all cases: PRESTO-Tango GPCR screen
Type in all cases: cell-based
Settings in all cases: 100 µM
[1] = target: T1, GPR144 (Homo sapiens, UniProt Q7Z7M1)
T1 construct: purchased PRESTO-Tango GPCR kit (Roth lab / Addgene)
Experimental: (§1) The PRESTO-Tango analyses were performed as previously published. Briefly, HTLA cells, a HEK293 cell line that stably expresses β-arrestin-TEV and tTA-Luciferase (a kind gift from Gilad Barnea, Brown University), were plated in 96-well tissue culture plates (Eppendorf) in DMEM containing 10% FBS and 1% Penicillin/Streptomycin. One day after plating (after reaching approximately 90% confluence), 200 ng per well GPCR-Tango plasmids[37] in 20 μL DMEM were individually mixed with 400 ng polyethylenimine (Polysciences) in an equal volume of DMEM and incubated for 20 min at room temperature before adding the transfection mixture to the HTLA cells. 16-24 h after transfection, medium was replaced with 180 μL fresh DMEM containing 1% Penicillin/Streptomycin and 10 mM HEPES and 20 μL of 3 or 3-Homo to reach a final concentration of 100 μM. Supernatants were aspirated 20 h after stimulation and 50 μl per well of Bright-Glo solution (Promega) diluted 20-fold with PBS containing 20 mM HEPES was added into each well. After 15 min incubation at room temperature, luminescence was quantified using a Spectramax i3x microplate reader (Molecular Devices). Activation fold for each sample was calculated by dividing relative luminescence units (RLU) for each condition by RLUs from PBS control. Dose response curves of each chemical were performed in a similar way with varying the ligand concentration from 10^−4 M to 10^−15 M.

[2] = target: T2, GPR88 (Homo sapiens, UniProt Q9GZN0)
T2 construct: purchased PRESTO-Tango GPCR kit (Roth lab / Addgene)
Experimental: as §1

[3] = target: T3, OPRM1 (Homo sapiens, UniProt P35372)
T3 construct: purchased PRESTO-Tango GPCR kit (Roth lab / Addgene)
Experimental: as §1

[4] = target: T4, GPR25 (Homo sapiens, UniProt O00155)
T4 construct: purchased PRESTO-Tango GPCR kit (Roth lab / Addgene)
Experimental: as §1

[5] = target: T5, EDNRA (Homo sapiens, UniProt P25101)
T5 construct: purchased PRESTO-Tango GPCR kit (Roth lab / Addgene)
Experimental: as §1

[6] = target: T6, GPR162 (Homo sapiens, UniProt Q16538)
T6 construct: purchased PRESTO-Tango GPCR kit (Roth lab / Addgene)
Experimental: as §1

[7] = target: T7, GPR56 (Homo sapiens, UniProt Q9Y653)
T7 construct: purchased PRESTO-Tango GPCR kit (Roth lab / Addgene)
Experimental: as §1

[8] = target: T8, HTR5 (Homo sapiens, UniProt P47898)
T8 construct: purchased PRESTO-Tango GPCR kit (Roth lab / Addgene)
Experimental: as §1

[9] = target: T9, GPR61 (Homo sapiens, UniProt Q9BZJ8)
T9 construct: purchased PRESTO-Tango GPCR kit (Roth lab / Addgene)
Experimental: as §1

[10] = target: T10, PTGIR (Homo sapiens, UniProt P43119)
T10 construct: purchased PRESTO-Tango GPCR kit (Roth lab / Addgene)
Experimental: as §1

[11] = target: T11, GPR26 (Homo sapiens, UniProt Q8NDV2)
T11 construct: purchased PRESTO-Tango GPCR kit (Roth lab / Addgene)
Experimental: as §1

[12] = target: T12, GPRC5B (Homo sapiens, UniProt Q9NZH0)
T12 construct: purchased PRESTO-Tango GPCR kit (Roth lab / Addgene)
Experimental: as §1

[13] = target: T13, CHRM5 (Homo sapiens, UniProt P08912)
T13 construct: purchased PRESTO-Tango GPCR kit (Roth lab / Addgene)
Experimental: as §1

[14] = target: T14, ADRA1D (Homo sapiens, UniProt P25100)
T14 construct: purchased PRESTO-Tango GPCR kit (Roth lab / Addgene)
Experimental: as §1

[15] = target: T15, CASR (Homo sapiens, UniProt P41180)
T15 construct: purchased PRESTO-Tango GPCR kit (Roth lab / Addgene)
Experimental: as §1

[16] = target: T16, CCR6 (Homo sapiens, UniProt P51684)
T16 construct: purchased PRESTO-Tango GPCR kit (Roth lab / Addgene)
Experimental: as §1

[17] = target: T17, GPRC5A (Homo sapiens, UniProt Q8NFJ5)
T17 construct: purchased PRESTO-Tango GPCR kit (Roth lab / Addgene)
Experimental: as §1

[18] = target: T18, OPRK1 (Homo sapiens, UniProt P41145)
T18 construct: purchased PRESTO-Tango GPCR kit (Roth lab / Addgene)
Experimental: as §1

[19] = target: T19, CALCRb (Homo sapiens, UniProt P30988)
T19 construct: purchased PRESTO-Tango GPCR kit (Roth lab / Addgene)
Experimental: as §1

[20] = target: T20, MC2R (Homo sapiens, UniProt Q01718)
T20 construct: purchased PRESTO-Tango GPCR kit (Roth lab / Addgene)
Experimental: as §1

[21] = target: T21, HTR6 (Homo sapiens, UniProt P50406)
T21 construct: purchased PRESTO-Tango GPCR kit (Roth lab / Addgene)
Experimental: as §1

[22] = target: T22, LTB4R (Homo sapiens, UniProt Q15722)
T22 construct: purchased PRESTO-Tango GPCR kit (Roth lab / Addgene)
Experimental: as §1

[23] = target: T23, OXER1 (Homo sapiens, UniProt Q8TDS5)
T23 construct: purchased PRESTO-Tango GPCR kit (Roth lab / Addgene)
Experimental: as §1

[24] = target: T24, RXFP4 (Homo sapiens, UniProt Q8TDU9)
T24 construct: purchased PRESTO-Tango GPCR kit (Roth lab / Addgene)
Experimental: as §1

[25] = target: T25, GPR39 (Homo sapiens, UniProt O43194)
T25 construct: purchased PRESTO-Tango GPCR kit (Roth lab / Addgene)
Experimental: as §1

[26] = target: T26, P2RY6 (Homo sapiens, UniProt Q15077)
T26 construct: purchased PRESTO-Tango GPCR kit (Roth lab / Addgene)
Experimental: as §1

[27] = target: T27, EDNRB (Homo sapiens, UniProt P24530)
T27 construct: purchased PRESTO-Tango GPCR kit (Roth lab / Addgene)
Experimental: as §1

[28] = target: T28, HCA3 (Homo sapiens, UniProt P49019)
T28 construct: purchased PRESTO-Tango GPCR kit (Roth lab / Addgene)
Experimental: as §1

[29] = target: T29, CXCR3 (Homo sapiens, UniProt P49682)
T29 construct: purchased PRESTO-Tango GPCR kit (Roth lab / Addgene)
Experimental: as §1

[30] = target: T30, NPY1R (Homo sapiens, UniProt P25929)
T30 construct: purchased PRESTO-Tango GPCR kit (Roth lab / Addgene)
Experimental: as §1

[31] = target: T31, GPR148 (Homo sapiens, UniProt Q8TDV2)
T31 construct: purchased PRESTO-Tango GPCR kit (Roth lab / Addgene)
Experimental: as §1

[32] = target: T32, GPR97 (Homo sapiens, UniProt Q86Y34)
T32 construct: purchased PRESTO-Tango GPCR kit (Roth lab / Addgene)
Experimental: as §1

[33] = target: T33, GPR75 (Homo sapiens, UniProt O95800)
T33 construct: purchased PRESTO-Tango GPCR kit (Roth lab / Addgene)
Experimental: as §1

[34] = target: T34, GPR160 (Homo sapiens, UniProt Q9UJ42)
T34 construct: purchased PRESTO-Tango GPCR kit (Roth lab / Addgene)
Experimental: as §1

[35] = target: T35, CX3C1 (Homo sapiens, UniProt P49238)
T35 construct: purchased PRESTO-Tango GPCR kit (Roth lab / Addgene)
Experimental: as §1

[36] = target: T36, GPRC5C (Homo sapiens, UniProt Q9NQ84)
T36 construct: purchased PRESTO-Tango GPCR kit (Roth lab / Addgene)
Experimental: as §1

T11 sequence (Q8NDV2 whole entry): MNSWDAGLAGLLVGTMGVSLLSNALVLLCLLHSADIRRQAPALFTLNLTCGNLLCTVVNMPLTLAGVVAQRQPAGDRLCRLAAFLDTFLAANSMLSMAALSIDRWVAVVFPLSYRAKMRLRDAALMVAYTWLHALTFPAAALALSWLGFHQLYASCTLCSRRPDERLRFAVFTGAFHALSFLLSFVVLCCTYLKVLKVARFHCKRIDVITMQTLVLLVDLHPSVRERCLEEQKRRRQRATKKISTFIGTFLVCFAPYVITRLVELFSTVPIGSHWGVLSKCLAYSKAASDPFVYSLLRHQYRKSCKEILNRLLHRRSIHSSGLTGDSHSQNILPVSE
T17 sequence (Q8NFJ5 whole entry): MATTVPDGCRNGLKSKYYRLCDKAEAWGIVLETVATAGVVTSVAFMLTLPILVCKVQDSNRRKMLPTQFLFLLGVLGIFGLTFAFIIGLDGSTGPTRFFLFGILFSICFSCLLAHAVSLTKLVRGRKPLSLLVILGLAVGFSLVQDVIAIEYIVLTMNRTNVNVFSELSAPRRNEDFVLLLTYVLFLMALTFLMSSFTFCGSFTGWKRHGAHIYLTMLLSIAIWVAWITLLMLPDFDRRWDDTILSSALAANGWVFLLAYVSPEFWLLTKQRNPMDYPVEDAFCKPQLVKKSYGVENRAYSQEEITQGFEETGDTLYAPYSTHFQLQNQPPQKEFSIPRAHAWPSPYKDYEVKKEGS
T2 sequence (Q9GZN0 whole entry): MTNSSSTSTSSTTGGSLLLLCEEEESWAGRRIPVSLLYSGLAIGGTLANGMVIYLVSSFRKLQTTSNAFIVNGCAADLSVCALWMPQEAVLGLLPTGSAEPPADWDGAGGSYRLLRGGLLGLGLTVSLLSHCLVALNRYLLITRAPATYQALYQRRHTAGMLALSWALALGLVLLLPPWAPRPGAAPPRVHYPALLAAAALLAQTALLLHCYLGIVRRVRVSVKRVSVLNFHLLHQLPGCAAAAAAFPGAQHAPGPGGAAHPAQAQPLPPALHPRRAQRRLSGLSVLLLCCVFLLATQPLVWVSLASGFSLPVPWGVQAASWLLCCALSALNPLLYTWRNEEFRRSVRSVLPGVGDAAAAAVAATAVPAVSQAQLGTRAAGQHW
T13 sequence (P08912 whole entry): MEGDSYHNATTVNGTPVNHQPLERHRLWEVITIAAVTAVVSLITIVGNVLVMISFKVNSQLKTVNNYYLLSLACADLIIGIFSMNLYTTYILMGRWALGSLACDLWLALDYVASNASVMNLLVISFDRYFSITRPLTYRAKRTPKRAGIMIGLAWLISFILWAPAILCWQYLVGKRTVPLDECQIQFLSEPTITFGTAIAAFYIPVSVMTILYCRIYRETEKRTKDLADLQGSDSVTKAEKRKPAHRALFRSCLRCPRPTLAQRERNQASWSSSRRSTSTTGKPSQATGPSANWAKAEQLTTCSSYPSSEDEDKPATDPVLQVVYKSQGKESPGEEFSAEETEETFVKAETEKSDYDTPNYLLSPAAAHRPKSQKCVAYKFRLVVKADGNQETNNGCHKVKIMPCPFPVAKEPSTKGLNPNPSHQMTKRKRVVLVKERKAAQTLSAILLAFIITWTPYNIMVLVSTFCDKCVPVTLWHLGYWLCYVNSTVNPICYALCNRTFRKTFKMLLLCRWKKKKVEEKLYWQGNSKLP
T34 sequence (Q9UJ42 whole entry): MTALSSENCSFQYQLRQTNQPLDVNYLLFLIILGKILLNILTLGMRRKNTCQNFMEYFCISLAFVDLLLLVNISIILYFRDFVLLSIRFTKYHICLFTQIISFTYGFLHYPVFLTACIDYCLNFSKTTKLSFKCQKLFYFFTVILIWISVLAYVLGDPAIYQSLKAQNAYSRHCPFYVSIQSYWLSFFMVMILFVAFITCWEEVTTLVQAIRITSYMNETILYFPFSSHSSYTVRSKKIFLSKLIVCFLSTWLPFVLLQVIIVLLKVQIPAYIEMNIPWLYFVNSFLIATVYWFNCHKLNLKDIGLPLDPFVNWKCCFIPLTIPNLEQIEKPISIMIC
T33 sequence (O95800 whole entry): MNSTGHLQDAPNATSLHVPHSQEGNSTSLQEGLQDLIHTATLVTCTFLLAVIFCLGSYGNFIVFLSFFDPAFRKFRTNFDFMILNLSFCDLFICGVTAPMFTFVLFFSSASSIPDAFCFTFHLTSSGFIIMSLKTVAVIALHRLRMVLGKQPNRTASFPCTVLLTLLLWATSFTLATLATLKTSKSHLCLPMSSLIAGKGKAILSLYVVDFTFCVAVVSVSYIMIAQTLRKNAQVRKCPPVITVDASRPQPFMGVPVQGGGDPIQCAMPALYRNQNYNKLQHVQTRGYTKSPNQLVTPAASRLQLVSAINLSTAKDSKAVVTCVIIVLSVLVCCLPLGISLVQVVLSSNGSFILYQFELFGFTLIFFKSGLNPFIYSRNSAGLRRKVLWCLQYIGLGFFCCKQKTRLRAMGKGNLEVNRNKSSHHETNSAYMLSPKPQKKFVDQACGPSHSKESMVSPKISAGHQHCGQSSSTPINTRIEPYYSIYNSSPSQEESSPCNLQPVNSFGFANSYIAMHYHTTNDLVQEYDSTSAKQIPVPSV
T27 sequence (P24530 27-442): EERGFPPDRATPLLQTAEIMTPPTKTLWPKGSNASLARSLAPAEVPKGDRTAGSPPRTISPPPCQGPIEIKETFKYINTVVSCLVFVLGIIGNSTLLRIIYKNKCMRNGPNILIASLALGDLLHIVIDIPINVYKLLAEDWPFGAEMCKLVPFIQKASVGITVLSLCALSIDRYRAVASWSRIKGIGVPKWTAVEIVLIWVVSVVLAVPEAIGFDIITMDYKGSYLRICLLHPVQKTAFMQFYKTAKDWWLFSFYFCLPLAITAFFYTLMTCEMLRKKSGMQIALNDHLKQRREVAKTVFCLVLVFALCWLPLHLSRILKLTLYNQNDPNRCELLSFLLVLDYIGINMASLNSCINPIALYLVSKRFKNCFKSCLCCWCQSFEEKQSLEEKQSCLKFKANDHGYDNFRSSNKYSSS
T14 sequence (P25100 whole entry): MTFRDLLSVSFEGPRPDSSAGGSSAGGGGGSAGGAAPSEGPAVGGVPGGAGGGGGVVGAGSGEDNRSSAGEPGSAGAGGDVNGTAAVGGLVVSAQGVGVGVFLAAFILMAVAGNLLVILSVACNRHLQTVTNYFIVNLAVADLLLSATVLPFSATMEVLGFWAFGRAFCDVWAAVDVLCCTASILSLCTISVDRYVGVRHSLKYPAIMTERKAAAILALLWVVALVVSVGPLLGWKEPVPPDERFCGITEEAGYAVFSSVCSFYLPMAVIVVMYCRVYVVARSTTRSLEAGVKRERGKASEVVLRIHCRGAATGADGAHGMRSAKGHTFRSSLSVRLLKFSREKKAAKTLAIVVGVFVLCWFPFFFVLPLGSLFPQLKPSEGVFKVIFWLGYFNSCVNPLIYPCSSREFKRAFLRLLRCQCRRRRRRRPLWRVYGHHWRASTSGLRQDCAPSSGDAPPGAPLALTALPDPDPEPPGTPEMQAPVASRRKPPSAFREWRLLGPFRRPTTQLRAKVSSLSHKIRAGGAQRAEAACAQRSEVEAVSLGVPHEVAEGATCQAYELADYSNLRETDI
T19 sequence (P30988 25-490 isoform P30988-1 limits assumed): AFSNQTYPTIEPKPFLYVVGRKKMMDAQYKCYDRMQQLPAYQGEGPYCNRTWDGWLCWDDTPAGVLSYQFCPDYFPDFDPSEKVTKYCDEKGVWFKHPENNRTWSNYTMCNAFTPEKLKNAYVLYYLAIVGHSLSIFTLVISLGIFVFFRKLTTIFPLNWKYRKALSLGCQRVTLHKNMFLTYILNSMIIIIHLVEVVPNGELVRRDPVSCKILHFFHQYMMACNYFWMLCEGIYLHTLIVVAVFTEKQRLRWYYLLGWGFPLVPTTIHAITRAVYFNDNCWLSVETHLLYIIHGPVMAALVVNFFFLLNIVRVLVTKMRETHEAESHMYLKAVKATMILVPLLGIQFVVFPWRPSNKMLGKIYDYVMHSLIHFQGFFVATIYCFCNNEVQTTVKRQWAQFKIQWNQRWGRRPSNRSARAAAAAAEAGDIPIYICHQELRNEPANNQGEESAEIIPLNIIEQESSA
T30 sequence (P25929 whole entry): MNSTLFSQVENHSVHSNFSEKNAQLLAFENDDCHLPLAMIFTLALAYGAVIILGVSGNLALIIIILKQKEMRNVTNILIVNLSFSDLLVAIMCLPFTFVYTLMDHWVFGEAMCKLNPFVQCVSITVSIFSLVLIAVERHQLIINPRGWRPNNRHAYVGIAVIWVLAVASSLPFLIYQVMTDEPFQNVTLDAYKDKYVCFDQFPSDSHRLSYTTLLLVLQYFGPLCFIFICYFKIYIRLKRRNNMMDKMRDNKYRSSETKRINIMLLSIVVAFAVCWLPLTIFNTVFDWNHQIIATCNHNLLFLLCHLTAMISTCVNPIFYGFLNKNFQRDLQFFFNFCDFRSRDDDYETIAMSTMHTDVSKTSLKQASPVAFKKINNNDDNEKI
T8 sequence (P47898 whole entry): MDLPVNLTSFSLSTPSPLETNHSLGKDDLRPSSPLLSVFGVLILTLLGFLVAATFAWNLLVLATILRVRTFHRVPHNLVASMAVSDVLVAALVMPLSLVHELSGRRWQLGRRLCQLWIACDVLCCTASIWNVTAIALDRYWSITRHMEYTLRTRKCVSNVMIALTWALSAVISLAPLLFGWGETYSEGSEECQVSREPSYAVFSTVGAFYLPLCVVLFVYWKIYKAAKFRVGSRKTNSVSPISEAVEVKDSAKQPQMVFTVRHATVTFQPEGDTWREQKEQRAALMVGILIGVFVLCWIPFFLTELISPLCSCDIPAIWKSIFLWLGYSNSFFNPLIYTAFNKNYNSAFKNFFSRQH

| Structure (SMILES) | GPCR activation (heatmap value) [1] | GPCR activation (heatmap value) [2] | GPCR activation (heatmap value) [3] | GPCR activation (heatmap value) [4] | GPCR activation (heatmap value) [5] | GPCR activation (heatmap value) [6] | GPCR activation (heatmap value) [7] | GPCR activation (heatmap value) [8] | GPCR activation (heatmap value) [9] | GPCR activation (heatmap value) [10] | GPCR activation (heatmap value) [11] | GPCR activation (heatmap value) [12] | GPCR activation (heatmap value) [13] | GPCR activation (heatmap value) [14] | GPCR activation (heatmap value) [15] | GPCR activation (heatmap value) [16] | GPCR activation (heatmap value) [17] | GPCR activation (heatmap value) [18] | GPCR activation (heatmap value) [19] | GPCR activation (heatmap value) [20] | other results |
| --- | --- | --- | --- | --- | --- | --- | --- | --- | --- | --- | --- | --- | --- | --- | --- | --- | --- | --- | --- | --- | --- |
| CC(C)Cc1ncc(CCCNC(=N)N)[nH]c1=O [compound 3] | 0.6653 | -0.2878 | 1.469 | -0.8885 | -0.2835 | 0.329 | -0.03075 | -0.08015 | 0.4932 | 0.2177 | 2.339 | 0.6932 | 0.7902 | -0.2106 | -0.8261 | 0.5005 | -0.3148 | 0.02999 | -0.6231 | 0.1631 | GPCR activation (heatmap value) [21]: 0.5944; GPCR activation (heatmap value) [22]: -0.07274; GPCR activation (heatmap value) [23]: -0.9579; GPCR activation (heatmap value) [24]: -0.6712; GPCR activation (heatmap value) [25]: 0.8238; GPCR activation (heatmap value) [26]: 0.4506; GPCR activation (heatmap value) [27]: 0.7397; GPCR activation (heatmap value) [28]: -0.032; GPCR activation (heatmap value) [29]: 0.3957; GPCR activation (heatmap value) [30]: -0.2056; GPCR activation (heatmap value) [31]: 0.6105; GPCR activation (heatmap value) [32]: -0.1675; GPCR activation (heatmap value) [33]: -1.251; GPCR activation (heatmap value) [34]: 0.6688; GPCR activation (heatmap value) [35]: 0.5532; GPCR activation (heatmap value) [36]: 0.188 |
| CC(C)Cc1ncc(CCCCNC(=N)N)[nH]c1=O [3-Homo] | -0.2529 | -0.7293 | 0.127 | -0.6766 | -0.554 | -0.5864 | -0.2489 | 0.4039 | 1.164 | -0.205 | -1.573 | 0.238 | -0.008955 | 0.4606 | -0.5038 | -1.378 | 0.04883 | -0.1244 | -1.592 | -0.5707 | GPCR activation (heatmap value) [21]: -0.2493; GPCR activation (heatmap value) [22]: 0.1103; GPCR activation (heatmap value) [23]: 0.0005851; GPCR activation (heatmap value) [24]: -0.8625; GPCR activation (heatmap value) [25]: 0.5643; GPCR activation (heatmap value) [26]: -0.2248; GPCR activation (heatmap value) [27]: -0.6292; GPCR activation (heatmap value) [28]: -0.8056; GPCR activation (heatmap value) [29]: 0.846; GPCR activation (heatmap value) [30]: -1.44; GPCR activation (heatmap value) [31]: 0.1551; GPCR activation (heatmap value) [32]: -0.2469; GPCR activation (heatmap value) [33]: 0.5978; GPCR activation (heatmap value) [34]: 0.53; GPCR activation (heatmap value) [35]: 0.09565; GPCR activation (heatmap value) [36]: 0.07279 |
